Data from US11192899B2 (MERCK PATENT GMBH, priority 2017, dated 2021).
Read-outs that look alike come from different tables or passages of the source.

Columns and labels:
Format in all cases: cell-based
human A3 receptor = target: T1, human A3 receptor (Homo sapiens, UniProt P0DMS8); assay: cAMP HTRF functional assay, recombinant CHO cells expressing human A3 receptor, forskolin and agonist IB-MECA
T1 construct: expressed in transfected cells; host or cells: CHO
T1 sequence (P0DMS8 1-318): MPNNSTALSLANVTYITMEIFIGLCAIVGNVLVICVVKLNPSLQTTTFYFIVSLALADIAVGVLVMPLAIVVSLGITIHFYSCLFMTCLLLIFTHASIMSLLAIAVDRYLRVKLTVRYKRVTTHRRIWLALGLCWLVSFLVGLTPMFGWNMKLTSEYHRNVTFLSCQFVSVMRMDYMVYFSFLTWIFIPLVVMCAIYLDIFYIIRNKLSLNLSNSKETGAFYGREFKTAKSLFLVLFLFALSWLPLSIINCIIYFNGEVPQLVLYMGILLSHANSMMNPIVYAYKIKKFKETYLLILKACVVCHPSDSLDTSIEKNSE
Procedure: (§1) The functional activities of human A2A, A2B, A1 and A3 receptors were determined by quantification of cAMP, being the second messenger for adenosine receptors.
(§2) For human A1 and A3 receptors, recombinant CHO cells, expressing either A1 or A3-receptor, were used. As both receptors couple to Gi proteins, the assay protocol was adapted:
(§3) Cells were seeded into 384-well plates, forskolin, test compounds and agonists (CPA for A1- and IB-MECA for A3-receptor) were added. After 30 min incubation, HTRF reagents (cAMP dynamic 2, Cis Bio) were added and the cellular cAMP levels were determined using the ENVISION (Perkin Elmer) plate reader.
(§4) Obtained raw data were normalized against the inhibitor control and the neural control (DMSO) and the normalized data were fitted using GeneData software.

human A1 receptor = target: T2, human A1 receptor (Homo sapiens, UniProt P30542); assay: cAMP HTRF functional assay, recombinant CHO cells expressing human A1 receptor, forskolin and agonist CPA
T2 construct: expressed in transfected cells; host or cells: CHO
T2 sequence (P30542 1-326): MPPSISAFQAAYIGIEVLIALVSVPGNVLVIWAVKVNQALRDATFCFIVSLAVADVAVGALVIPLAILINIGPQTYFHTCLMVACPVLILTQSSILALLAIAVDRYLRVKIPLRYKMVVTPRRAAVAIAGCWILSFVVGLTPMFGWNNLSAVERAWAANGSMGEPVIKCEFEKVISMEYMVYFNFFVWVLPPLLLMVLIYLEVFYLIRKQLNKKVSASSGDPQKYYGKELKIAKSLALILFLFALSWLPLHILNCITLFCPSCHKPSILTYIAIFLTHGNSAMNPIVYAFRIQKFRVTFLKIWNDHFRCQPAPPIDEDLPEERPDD
Procedure: as §1, §2, §3, §4

human A2A receptor = target: T3, human A2A receptor (Homo sapiens, UniProt P29274); assay: cAMP HTRF functional assay, recombinant HEK293 cells expressing human A2A receptor, agonist NECA
T3 construct: expressed in transfected cells; host or cells: HEK293
T3 sequence (P29274 whole entry): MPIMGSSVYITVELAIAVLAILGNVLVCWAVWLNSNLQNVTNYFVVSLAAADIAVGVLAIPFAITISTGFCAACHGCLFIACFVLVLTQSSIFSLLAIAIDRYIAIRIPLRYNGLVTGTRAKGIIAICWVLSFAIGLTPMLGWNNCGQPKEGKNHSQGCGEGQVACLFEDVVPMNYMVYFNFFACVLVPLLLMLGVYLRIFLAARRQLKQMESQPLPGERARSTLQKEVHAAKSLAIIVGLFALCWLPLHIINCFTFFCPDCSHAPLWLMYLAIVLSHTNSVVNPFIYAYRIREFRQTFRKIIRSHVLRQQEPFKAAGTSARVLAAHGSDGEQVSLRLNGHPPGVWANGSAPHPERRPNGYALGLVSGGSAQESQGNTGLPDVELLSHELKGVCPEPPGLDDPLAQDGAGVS
Procedure: as §1, §4

A2B receptors = target: T4, A2B receptors (Homo sapiens, UniProt P29275); assay: cAMP HTRF functional assay, recombinant HEK293 cells expressing human A2B receptor, agonist NECA; parameters: expressed in transfected cells; host or cells: HEK293
T4 sequence (P29275 1-332): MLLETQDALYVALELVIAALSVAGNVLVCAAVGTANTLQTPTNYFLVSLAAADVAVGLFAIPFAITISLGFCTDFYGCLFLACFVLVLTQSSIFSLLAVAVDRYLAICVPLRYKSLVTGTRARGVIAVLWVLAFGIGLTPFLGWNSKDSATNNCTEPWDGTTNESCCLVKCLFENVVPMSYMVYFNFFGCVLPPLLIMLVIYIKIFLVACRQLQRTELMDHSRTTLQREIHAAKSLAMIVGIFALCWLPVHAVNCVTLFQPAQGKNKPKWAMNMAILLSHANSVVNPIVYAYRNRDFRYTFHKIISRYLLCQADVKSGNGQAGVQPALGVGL
Procedure: as §1, §4

[1] = recombinant HEK293 cells, cAMP, agonist NECA

Compound	IC50 (human A3 receptor) [µM]	IC50 (human A1 receptor) [µM]	IC50 (human A2A receptor; [1]) [µM]	IC50 (A2B receptors; [1]) [µM]	IC50 (human A2A receptor) [µM]	IC50 (A2B receptors) [µM]
4-hydroxy-N-[8-methoxy-5-(2-methylphenyl)quinoxalin-2-yl]-4-methylpiperidine-1-carboxamide [compound 29]	> 1	> 1	< 0.1	< 1		
COc1ccc(C2CCOCC2)c2ncc(NC(=O)c3coc(C)n3)nc12 [compound 16]	> 1	> 1			< 0.1	> 1
COc1ccc(-c2ccccc2)c2ncc(NC(=O)c3cnc(C)s3)nc12 [compound 48]	> 1	< 1			< 0.01	< 0.1
COc1ccc(-c2ccccc2)c2ncc(NC(=O)c3cnc(C)o3)nc12 [compound 105, N-(8-methoxy-5-phenylquinoxalin-2-yl)-2-methyl-1,3-oxazole-5-carboxamide]	< 1	< 1			< 0.01	< 0.1
COc1ncc(C2CCOCC2)c2ncc(NC(=O)C3CC3)nc12 [compound 106, Cyclopropanecarboxylic acid [5-methoxy-8-(tetrahydro-pyran-4-yl)-pyrido[3,4-b]pyrazin-3-yl]-amide]	> 1	< 1			< 0.01	< 0.1
COCCOCc1cccc(-c2ccc(OC)c3nc(NC(=O)N4CCC(C)(O)CC4)cnc23)c1 [compound 118, 4-hydroxy-N-(8-methoxy-5-{3-[(2-methoxyethoxy)methyl]phenyl}quinoxalin-2-yl)-4-methylpiperidine-1-carboxamide]	> 1	> 1			< 0.1	> 1
COc1ccc(-c2ccccc2F)c2ncc(NC(=O)C3CC3)nc12 [compound 120, N-[5-(2-fluorophenyl)-8-methoxyquinoxalin-2-yl]cyclopropanecarboxamide]	< 1	< 1			< 0.01	< 0.1
COc1ccc(-c2cccnc2)c2ncc(NC(=O)C3CC3)nc12 [compound 121, N-[8-methoxy-5-(pyridin-3-yl)quinoxalin-2-yl]cyclopropanecarboxamide]	< 1	< 1			< 0.1	< 1
COc1ccc(N2CCCCCC2)c2ncc(NC(=O)C3CC3)nc12 [compound 122, N-[5-(azepan-1-yl)-8-methoxyquinoxalin-2-yl]cyclopropanecarboxamide]	> 1	> 1			< 0.1	
COc1ccc(-c2cccc(F)c2F)c2ncc(NC(=O)C3CC3)nc12 [compound 123, N-[5-(2,3-difluorophenyl)-8-methoxyquinoxalin-2-yl]cyclopropanecarboxamide]	< 1	< 1			< 0.01	< 0.1
COc1ccc(-c2cc(F)ccc2F)c2ncc(NC(=O)C3CC3)nc12 [compound 124, N-[5-(2,5-difluorophenyl)-8-methoxyquinoxalin-2-yl]cyclopropanecarboxamide]	< 1	< 1			< 0.01	> 1
COc1ccc(-c2ccc(F)cc2)c2ncc(NC(=O)C3CC3)nc12 [compound 126, N-[5-(4-fluorophenyl)-8-methoxyquinoxalin-2-yl]cyclopropanecarboxamide]	< 1	< 1			< 0.01	< 0.1
COc1ccc(-c2cc(F)ccc2F)c2ncc(NC(=O)c3cnc(C)o3)nc12 [compound 128, N-[5-(2,5-difluorophenyl)-8-methoxyquinoxalin-2-yl]-2-methyl-1,3-oxazole-5-carboxamide]	< 1	> 1			< 0.1	
COc1ccc(-c2ccc(F)cc2)c2ncc(NC(=O)c3cnc(C)o3)nc12 [compound 131, N-[5-(4-fluorophenyl)-8-methoxyquinoxalin-2-yl]-2-methyl-1,3-oxazole-5-carboxamide]	< 1	< 1			< 0.01	< 0.1
COc1ccc(C2=CCOCC2)c2ncc(NC(=O)c3cnc(C)s3)nc12 [compound 134, N-[5-(3,6-dihydro-2H-pyran-4-yl)-8-methoxyquinoxalin-2-yl]-2-methyl-1,3-thiazole-5-carboxamide]	> 1	< 1			< 0.01	< 0.1
COc1ccc(C2=CCOCC2)c2ncc(NC(=O)c3cnsc3)nc12 [compound 136, N-[5-(3,6-dihydro-2H-pyran-4-yl)-8-methoxyquinoxalin-2-yl]-1,2-thiazole-4-carboxamide]	> 1	< 1			< 0.01	< 0.1
COc1ccc(-c2cccnc2)c2ncc(NC(=O)c3cnc(C)o3)nc12 [compound 138, N-[8-methoxy-5-(pyridin-3-yl)quinoxalin-2-yl]-2-methyl-1,3-oxazole-5-carboxamide]	> 1	< 0.01			< 0.1	< 0.1
COc1ccc(C2=CCOCC2)c2ncc(NC(=O)c3csc(N)n3)nc12 [compound 139, 2-amino-N-[5-(3,6-dihydro-2H-pyran-4-yl)-8-methoxyquinoxalin-2-yl]-1,3-thiazole-4-carboxamide]		> 1			< 0.1	> 1
COc1ccc(C2=CCOCC2)c2ncc(NC(=O)c3ncc(C4CCOC4)s3)nc12 (stereo not drawn) [compound 140, N-[5-(3,6-dihydro-2H-pyran-4-yl)-8-methoxyquinoxalin-2-yl]-5-(oxolan-3-yl)-1,3-thiazole-2-carboxamide]		< 1			< 0.01	< 0.1
COc1ccc(C2=CCOC2)c2ncc(NC(=O)C3CC3)nc12 [compound 141, N-[5-(2,5-dihydrofuran-3-yl)-8-methoxyquinoxalin-2-yl]cyclopropanecarboxamide]	< 1	< 1			< 0.1	< 0.1
COc1ccc(C2=CCOCC2)c2ncc(NC(=O)c3coc(CN)c3)nc12 [compound 142, 5-(aminomethyl)-N-[5-(3,6-dihydro-2H-pyran-4-yl)-8-methoxyquinoxalin-2-yl]furan-3-carboxamide]		> 1			< 0.01	> 1
CCOC(=O)c1nnc(NC(=O)Nc2cnc3c(C4=CCOCC4)ccc(OC)c3n2)s1 [compound 143, ethyl 5-({[5-(3,6-dihydro-2H-pyran-4-yl)-8-methoxyquinoxalin-2-yl]carbamoyl}amino)-1,3,4-thiadiazole-2-carboxylate]		> 1			< 0.1	> 1
COc1ccc(-c2ccccc2)c2ncc(NC(=O)C3(C(=O)N(C)C)CC3)nc12 [compound 149, N′1-(8-methoxy-5-phenylquinoxalin-2-yl)-N1,N1-dimethylcyclopropane-1,1-dicarboxamide]	< 1	> 1			< 0.1	
COCCOc1cccc(-c2ccc(OC)c3nc(NC(=O)c4nnc(C)s4)cnc23)c1 [compound 152, N-{8-methoxy-5-[3-(2-methoxyethoxy)phenyl]quinoxalin-2-yl}-5-methyl-1,3,4-thiadiazole-2-carboxamide]	> 1				< 0.1	
COc1ccc(C2=CCOCC2)c2ncc(NC(=O)c3cnc[nH]3)nc12 [compound 159, N-[5-(3,6-dihydro-2H-pyran-4-yl)-8-methoxyquinoxalin-2-yl]-1H-imidazole-5-carboxamide]		< 1			< 0.1	< 0.1
COc1ccc(-c2ccccc2)c2ncc(NC(=O)c3cnc[nH]3)nc12 [compound 160, N-(8-methoxy-5-phenylquinoxalin-2-yl)-1H-imidazole-5-carboxamide]		> 1			< 0.1	< 0.1
